Structures are written as SMILES. Bounds are passed on as bounds.

Chain of GST-Bc1-2 (P10415 whole entry): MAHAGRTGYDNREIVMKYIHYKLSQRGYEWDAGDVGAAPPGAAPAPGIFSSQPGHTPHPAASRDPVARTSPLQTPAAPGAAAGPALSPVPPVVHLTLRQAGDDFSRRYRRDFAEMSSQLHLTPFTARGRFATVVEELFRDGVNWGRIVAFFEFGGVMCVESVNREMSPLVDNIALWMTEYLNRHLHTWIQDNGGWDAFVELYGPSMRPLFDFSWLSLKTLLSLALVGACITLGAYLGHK

This experiment concerns the target GST-Bc1-2 (Homo sapiens, UniProt P10415). The experiment can be described thus: Time Resolved-Fluorescence Resonance Energy Transfer (TR-FRET) Bcl-2 binding assay with F-Bak peptide probe. To be noted: GST-Bcl-2 1 nM, F-Bak probe 100 nM, Tb-anti-GST 1 nM; '<' = below limit of detection; read-out: TR-FRET Bcl-2 Binding Ki. (Time-resolved FRET reads energy transfer from a long-lived donor to a nearby acceptor.)
Experimental: The samples are then mixed on a shaker for 1 minute and incubated for an additional 3 hours at room temperature. For each assay, the probe/antibody and protein/probe/antibody were included on each assay plate as negative and positive controls, respectively.
The samples were then mixed on a shaker for 1 minute and incubated for an additional 3 hours at room temperature. For each assay, the probe/antibody and protein/probe/antibody were included on each assay plate as negative and positive controls, respectively.
For orientation: Ki means the equilibrium dissociation constant of an inhibitor or competing ligand from its target. Regarding `O=C(NS(=O)(=O)c1ccc(NCC2CN(C3CC3)CCO2)c([N+](=O)[O-])c1)c1ccc(N2CCN(CC3=C(c4ccc(Cl)cc4)CC4(CC3)CC4)CC2)cc1Oc1cnc2[nH]ccc2c1` (stereo not drawn) [Example 330, 4-(4-{[5-(4-chlorophenyl)spiro[2.5]oct-5-en-6-yl]methyl}piperazin-1-yl)-N-[(4-{[(4-cyclopropylmorpholin-2-yl)methyl]amino}-3-nitrophenyl)sulfonyl]-2-(1H-pyrrolo[2,3-b]pyridin-5-yloxy)benzamide], the Ki was below 0.01 nM. The figure for `CC1(C)CCC(CN2CCN(c3ccc(C(=O)NS(=O)(=O)c4ccc(OCC5CN(C6CC6)CCO5)c(Cl)c4)c(Oc4cnc5[nH]ccc5c4)c3)CC2)=C(c2ccc(Cl)cc2)C1` (stereo not drawn) [Example 331, N-({3-chloro-4-[(4-cyclopropylmorpholin-2-yl)methoxy]phenyl}sulfonyl)-4-(4-{[2-(4-chlorophenyl)-4,4-dimethylcyclohex-1-en-1-yl]methyl}piperazin-1-yl)-2-(1H-pyrrolo[2,3-b]pyridin-5-yloxy)benzamide] is 1.09 nM. The figure for `CC1(C)CCC(CN2CCN(c3ccc(C(=O)NS(=O)(=O)c4ccc(NCC5CN(C6CC6)CCO5)c(Cl)c4)c(Oc4cnc5[nH]ccc5c4)c3)CC2)=C(c2ccc(Cl)cc2)C1` (stereo not drawn) [Example 332, N-[(3-chloro-4-{[(4-cyclopropylmorpholin-2-yl)methyl]amino}phenyl)sulfonyl]-4-(4-{[2-(4-chlorophenyl)-4,4-dimethylcyclohex-1-en-1-yl]methyl}piperazin-1-yl)-2-(1H-pyrrolo[2,3-b]pyridin-5-yloxy)benzamide] is 0.621 nM; for `CCN(C)C(=O)N1CCOC(CNc2ccc(S(=O)(=O)NC(=O)c3ccc(N4CCN(CC5=C(c6ccc(Cl)cc6)CC(C)(C)CC5)CC4)cc3Oc3cnc4[nH]ccc4c3)cc2Cl)C1` (stereo not drawn) [Example 333, 2-{[(2-chloro-4-{[4-(4-{[2-(4-chlorophenyl)-4,4-dimethylcyclohex-1-en-1-yl]methyl}piperazin-1-yl)-2-(1H-pyrrolo[2,3-b]pyridin-5-yloxy)benzoyl]sulfamoyl}phenyl)amino]methyl}-N-ethyl-N-methylmorpholine-4-carboxamide] it is 0.511 nM; for `CCN(C)C(=O)N1CCO[C@H](COc2ncc(S(=O)(=O)NC(=O)c3ccc(N4CCN(CC5=C(c6ccc(Cl)cc6)CC(C)(C)CC5)CC4)cc3Oc3cnc4[nH]ccc4c3)cc2Cl)C1` [Example 334, (2S)-2-{[(3-chloro-5-{[4-(4-{[2-(4-chlorophenyl)-4,4-dimethylcyclohex-1-en-1-yl]methyl}piperazin-1-yl)-2-(1H-pyrrolo[2,3-b]pyridin-5-yloxy)benzoyl]sulfamoyl}pyridin-2-yl)oxy]methyl}-N-ethyl-N-methylmorpholine-4-carboxamide] it is 0.572 nM. Under `CC1(C)CCC(CN2CCN(c3ccc(C(=O)NS(=O)(=O)c4cnc(NCC5CN(C6CC6)CCO5)c(Cl)c4)c(Oc4cnc5[nH]ccc5c4)c3)CC2)=C(c2ccc(Cl)cc2)C1` (stereo not drawn) [Example 335, N-[(5-chloro-6-{[(4-cyclopropylmorpholin-2-yl)methyl]amino}pyridin-3-yl)sulfonyl]-4-(4-{[2-(4-chlorophenyl)-4,4-dimethylcyclohex-1-en-1-yl]methyl}piperazin-1-yl)-2-(1H-pyrrolo[2,3-b]pyridin-5-yloxy)benzamide] stands 0.15 nM. Take `CCN(C)C(=O)N1CCOC(CNc2ncc(S(=O)(=O)NC(=O)c3ccc(N4CCN(CC5=C(c6ccc(Cl)cc6)CC(C)(C)CC5)CC4)cc3Oc3cnc4[nH]ccc4c3)cc2Cl)C1` (stereo not drawn) [Example 336, 2-{[(3-chloro-5-{[4-(4-{[2-(4-chlorophenyl)-4,4-dimethylcyclohex-1-en-1-yl]methyl}piperazin-1-yl)-2-(1H-pyrrolo[2,3-b]pyridin-5-yloxy)benzoyl]sulfamoyl}pyridin-2-yl)amino]methyl}-N-ethyl-N-methylmorpholine-4-carboxamide]: the Ki turned out to be 0.198 nM. Under `CC1(C)CCC(CN2CCN(c3ccc(C(=O)NS(=O)(=O)c4ccc(NC5CCC(N(CCC#N)C6CC6)CC5)c([N+](=O)[O-])c4)c(Oc4cnc5[nH]ccc5c4)c3)CC2)=C(c2ccc(Cl)cc2)C1` (stereo not drawn) [Example 340, 4-(4-{[2-(4-chlorophenyl)-4,4-dimethylcyclohex-1-en-1-yl]methyl}piperazin-1-yl)-N-{[4-({4-[(2-cyanoethyl)(cyclopropyl)amino]cyclohexyl}amino)-3-nitrophenyl]sulfonyl}-2-(1H-pyrrolo[2,3-b]pyridin-5-yloxy)benzamide] stands below 0.01 nM; under `CC1(C)CCC(CN2CCN(c3ccc(C(=O)NS(=O)(=O)c4cnc(OCC5CCc6nccn6C5)c(Cl)c4)c(Oc4cnc5[nH]ccc5c4)c3)CC2)=C(c2ccc(Cl)cc2)C1` (stereo not drawn) [Example 342, 4-(4-{[2-(4-chlorophenyl)-4,4-dimethylcyclohex-1-en-1-yl]methyl}piperazin-1-yl)-N-{[5-chloro-6-(5,6,7,8-tetrahydroimidazo[1,2-a]pyridin-6-ylmethoxy)pyridin-3-yl]sulfonyl}-2-(1H-pyrrolo[2,3-b]pyridin-5-yloxy)benzamide], below 0.01 nM. Consider `O=C(NS(=O)(=O)c1cnc(OCC2(F)CCN(C3COC3)CC2)c(Cl)c1)c1ccc(N2CCN(CC3=C(c4ccc(Cl)cc4)CC4(CC3)CC4)CC2)cc1Oc1cnc2[nH]ccc2c1` [Example 345, N-[(5-chloro-6-{[4-fluoro-1-(oxetan-3-yl)piperidin-4-yl]methoxy}pyridin-3-yl)sulfonyl]-4-(4-{[5-(4-chlorophenyl)spiro[2.5]oct-5-en-6-yl]methyl}piperazin-1-yl)-2-(1H-pyrrolo[2,3-b]pyridin-5-yloxy)benzamide], for which the Ki is below 0.01 nM. The figure for `CC1(C)CCC(CN2CCN(c3ccc(C(=O)NS(=O)(=O)c4ccc(NC5CCC(N6CCC(F)(F)C6)CC5)c([N+](=O)[O-])c4)c(Oc4cnc5[nH]ccc5c4)c3)CC2)=C(c2ccc(Cl)cc2)C1` (stereo not drawn) [Example 346, 4-(4-{[2-(4-chlorophenyl)-4,4-dimethylcyclohex-1-en-1-yl]methyl}piperazin-1-yl)-N-[(4-{[4-(3,3-difluoropyrrolidin-1-yl)cyclohexyl]amino}-3-nitrophenyl)sulfonyl]-2-(1H-pyrrolo[2,3-b]pyridin-5-yloxy)benzamide] is 0.042 nM. Under `CC1(C)CCC(CN2CCN(c3ccc(C(=O)NS(=O)(=O)c4ccc(NC5CCC(NC6CC6(F)F)CC5)c([N+](=O)[O-])c4)c(Oc4cnc5[nH]ccc5c4)c3)CC2)=C(c2ccc(Cl)cc2)C1` (stereo not drawn) [Example 349, 4-(4-{[2-(4-chlorophenyl)-4,4-dimethylcyclohex-1-en-1-yl]methyl}piperazin-1-yl)-N-{[4-({4-[(2,2-difluorocyclopropyl)amino]cyclohexyl}amino)-3-nitrophenyl]sulfonyl}-2-(1H-pyrrolo[2,3-b]pyridin-5-yloxy)benzamide] stands 0.023 nM; under `CC1(C)CCC(CN2CCN(c3ccc(C(=O)NS(=O)(=O)c4ccc(OCC5CCC6(CC5)COC6)c([N+](=O)[O-])c4)c(Oc4cnc5[nH]ccc5c4)c3)CC2)=C(c2ccc(Cl)cc2)C1` [Example 351, 4-(4-{[2-(4-chlorophenyl)-4,4-dimethylcyclohex-1-en-1-yl]methyl}piperazin-1-yl)-N-{[3-nitro-4-(2-oxaspiro[3.5]non-7-ylmethoxy)phenyl]sulfonyl}-2-(1H-pyrrolo[2,3-b]pyridin-5-yloxy)benzamide], below 0.01 nM. `O=C(NS(=O)(=O)c1ccc(NCC2CCOCC2)c([N+](=O)[O-])c1)c1ccc(N2CCN(CC3=C(c4ccc(Cl)cc4)CCC(CF)(CF)C3)CC2)cc1Oc1cnc2[nH]ccc2c1` [Example 353, 4-(4-{[2-(4-chlorophenyl)-5,5-bis(fluoromethyl)cyclohex-1-en-1-yl]methyl}piperazin-1-yl)-N-({3-nitro-4-[(tetrahydro-2H-pyran-4-ylmethyl)amino]phenyl}sulfonyl)-2-(1H-pyrrolo[2,3-b]pyridin-5-yloxy)benzamide]: the Ki is below 0.01 nM. For the compound `CC1(C)CCC(CN2CCN(c3ccc(C(=O)NS(=O)(=O)c4ccc(OCC5CN(C6CC6)CCO5)c([N+](=O)[O-])c4)c(Oc4cnc5[nH]ccc5c4)c3)CC2)=C(c2ccc(Cl)cc2)C1` (stereo not drawn) [Example 354, 4-(4-{[2-(4-chlorophenyl)-4,4-dimethylcyclohex-1-en-1-yl]methyl}piperazin-1-yl)-N-({4-[(4-cyclopropylmorpholin-2-yl)methoxy]-3-nitrophenyl}sulfonyl)-2-(1H-pyrrolo[2,3-b]pyridin-5-yloxy)benzamide], the Ki came to 0.01 nM. The figure for `CC1(C)CCC(CN2CCN(c3ccc(C(=O)NS(=O)(=O)c4ccc(OCC5(F)CCN(C6COC6)CC5)c(C#N)c4)c(Oc4cnc5[nH]ccc5c4)c3)CC2)=C(c2ccc(Cl)cc2)C1` [Example 357, 4-(4-{[2-(4-chlorophenyl)-4,4-dimethylcyclohex-1-en-1-yl]methyl}piperazin-1-yl)-N-[(3-cyano-4-{[4-fluoro-1-(oxetan-3-yl)piperidin-4-yl]methoxy}phenyl)sulfonyl]-2-(1H-pyrrolo[2,3-b]pyridin-5-yloxy)benzamide] is below 0.01 nM; for `COCC1(C)CCC(c2ccc(Cl)cc2)=C(CN2CCN(c3ccc(C(=O)NS(=O)(=O)c4ccc(NCC5CCOCC5)c([N+](=O)[O-])c4)c(Oc4cnc5[nH]ccc5c4)c3)CC2)C1` (stereo not drawn) [Example 360, 4-(4-{[2-(4-chlorophenyl)-5-(methoxymethyl)-5-methylcyclohex-1-en-1-yl]methyl}piperazin-1-yl)-N-({3-nitro-4-[(tetrahydro-2H-pyran-4-ylmethyl)amino]phenyl}sulfonyl)-2-(1H-pyrrolo[2,3-b]pyridin-5-yloxy)benzamide] it is below 0.01 nM. As to `CC1(C)CCC(CN2CCN(c3ccc(C(=O)NS(=O)(=O)c4ccc(NC[C@H]5CN(C6COC6)CCO5)c([N+](=O)[O-])c4)c(Oc4cnc5[nH]ccc5c4)c3)CC2)=C(c2ccc(Cl)cc2)C1` [Example 361, 4-(4-{[2-(4-chlorophenyl)-4,4-dimethylcyclohex-1-en-1-yl]methyl}piperazin-1-yl)-N-{[3-nitro-4-({[(2S)-4-(oxetan-3-yl)morpholin-2-yl]methyl}amino)phenyl]sulfonyl}-2-(1H-pyrrolo[2,3-b]pyridin-5-yloxy)benzamide], the inhibition constant (Ki) was below 0.01 nM.

The values above are taken from US8580794B2 (AbbVie Inc., priority 2009, dated 2013).
